According to ChEMBL document CHEMBL5236670 (Bioorg Med Chem Lett, 2023):
Activity calls are given as the source filed them. The rule behind the calls is not given here.

How the values were obtained:
[1] = Metabolic stability in human liver microsomes assessed as compound remaining at 0.5 uM after 10 mins; format: ADME, Microsome; settings: read-out: Stability
[2] = Metabolic stability in rat liver microsomes assessed as compound remaining at 0.5 uM after 10 mins; format: ADME, Microsome; settings: read-out: Stability
[3] = Metabolic stability in mouse liver microsomes assessed as compound remaining at 0.5 uM after 10 mins; format: ADME, Microsome; settings: read-out: Stability
[4] = target: Glycogen synthase kinase-3 beta (Homo sapiens, UniProt P49841); experiment: Inhibition of GSK-3beta (unknown origin) incubated for 1 hr by HTRF assay
Chain of Glycogen synthase kinase-3 beta (P49841 whole entry): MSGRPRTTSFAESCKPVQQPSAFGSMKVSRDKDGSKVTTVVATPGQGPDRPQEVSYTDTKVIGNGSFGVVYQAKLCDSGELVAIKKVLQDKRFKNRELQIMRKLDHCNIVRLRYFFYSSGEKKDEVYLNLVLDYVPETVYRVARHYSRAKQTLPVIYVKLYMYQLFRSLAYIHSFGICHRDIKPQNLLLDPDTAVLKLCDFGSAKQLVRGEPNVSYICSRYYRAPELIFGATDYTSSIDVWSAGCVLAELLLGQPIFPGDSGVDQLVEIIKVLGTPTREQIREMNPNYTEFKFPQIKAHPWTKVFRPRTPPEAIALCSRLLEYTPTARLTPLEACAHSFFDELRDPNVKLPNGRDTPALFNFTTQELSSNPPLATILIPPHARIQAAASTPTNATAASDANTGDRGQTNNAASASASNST

Mus musculus = experiment: Anti-alzheimer activity in triple-transgenic mouse model at 30 mg/kg, po; format: functional, organism-based

Row | Structure (SMILES) | remaining at 10 min, 0.5 µM [1] | remaining at 10 min, 0.5 µM [2] | remaining at 10 min, 0.5 µM [3] | IC50 [4] | Activity (Mus musculus)
1 | CC(C)c1ccncc1NC(=O)c1ccnc(NC(=O)C2CC2)c1 | 87% | 78% | 14% |  | 
2 | CC(C)(O)c1ccncc1NC(=O)c1ccnc(NC(=O)C2CC2)c1 | 87% | 100% | 27% | 0.1 nM | 
3 | O=C(Nc1cnccc1-c1ccc(Cl)cc1)c1ccnc(NC(=O)[C@H]2C[C@H](F)C2)c1 |  |  |  | 1.7 nM | 
4 | O=C(Nc1cnccc1N1CCC(F)(F)CC1)c1ccnc(NC(=O)[C@H]2C[C@@H](Cl)C2)c1 |  |  |  | 0.16 nM | 
5 | C=C(C)c1ccncc1NC(=O)c1ccnc(NC(=O)C2CC2)c1 | 88% | 57% | 3% |  | 
6 | CC(F)C(=O)Nc1cc(C(=O)Nc2cnccc2-c2ccccc2)ccn1 (centres undefined) |  |  |  | 49 nM | 
7 | O=C(Nc1cnccc1-c1ccccc1)c1ccnc(NC(=O)C2CCC2)c1 |  |  |  | 5.7 nM | 
8 | O=C(Nc1cnccc1N1CCC(F)(F)CC1)c1ccnc(NC(=O)[C@H]2C[C@H](Cl)C2)c1 |  |  |  | 0.37 nM | 
9 | O=C(Nc1cnccc1C(O)C(F)(F)F)c1ccnc(NC(=O)C2CC2)c1 (centres undefined) | 86% | 82% | 35% | 3.6 nM | 
10 | O=C(Nc1cncc(-c2cccc(F)c2F)c1)c1ccnc(NC(=O)C2CC2)c1 |  |  |  | 2.6 nM | 
11 | O=C(Nc1cncc(-c2cccc(F)c2F)c1)c1ccnc(NC(=O)C2CCC(F)(F)C2)c1 (centres undefined) |  |  |  | 2.5 nM | 
12 | O=C(Nc1cnccc1C(=O)C(F)(F)F)c1ccnc(NC(=O)C2CC2)c1 | 85% | 79% | 57% |  | 
13 | O=C(Nc1cnccc1-c1ccccc1)c1ccnc(NC(=O)C2CCOCC2)c1 |  |  |  | 4.5 nM | 
14 | O=C(Nc1cncc(-c2ccccc2F)c1)c1ccnc(NC(=O)C2CC2)c1 | 88% |  | 90% | 3 nM | inactive
15 | O=C(Nc1cnccc1C(F)(F)F)c1ccnc(NC(=O)C2CC2)c1 | 99% | 100% | 86% |  | 
16 | CC(C)C(=O)Nc1cc(C(=O)Nc2cnccc2OCCC(C)(C)O)ccn1 |  |  |  | 2.8 nM | 
17 | CC(C)C(=O)Nc1cc(C(=O)Nc2cnccc2OCC(C)(F)F)ccn1 |  |  |  | 1.4 nM | 
18 | O=C(Nc1cnccc1-c1ccc(Cl)cc1)c1ccnc(NC(=O)[C@H]2C[C@@H](F)C2)c1 |  |  |  | 6.9 nM | 
19 | O=C(Nc1cnccc1-c1ccccc1)c1ccnc(NC(=O)C2CCCC2)c1 |  |  |  | 2.1 nM | 
20 | O=C(Nc1cnccc1C1CCCCC1)c1ccnc(NC(=O)C2CC2)c1 | 1% | 0.4% | 0.6% |  | 
21 | O=C(Nc1cncc(-c2ccccc2)c1)c1ccnc(NC(=O)C2CC2)c1 |  |  |  | 9 nM | 
22 | O=C(Nc1cncc(-c2cc(F)ccc2F)c1)c1ccnc(NC(=O)C2CC2)c1 |  |  |  | 3.7 nM | 

More lines, main results first:

Row | remaining at 10 min, 0.5 µM [1] | remaining at 10 min, 0.5 µM [2] | remaining at 10 min, 0.5 µM [3] | IC50 [4] | Structure (SMILES) | Activity (Mus musculus)
23 | 72% | 43% | 1% |  | O=C(Nc1cnccc1C1CCC1)c1ccnc(NC(=O)C2CC2)c1 | 
24 | 66% | 40% | 1% |  | C[C@H]1CN(c2ccncc2NC(=O)c2ccnc(NC(=O)C3CC3)c2)CCO1 | 
25 | 100% | 100% | 77% |  | CC(O)c1ccncc1NC(=O)c1ccnc(NC(=O)C2CC2)c1 (centres undefined) | 
26 | 93% | 97% | 82% |  | Cc1ccncc1NC(=O)c1ccnc(NC(=O)C2CC2)c1 | 
27 | 56% | 36% | 3% |  | C[C@@H]1CN(c2ccncc2NC(=O)c2ccnc(NC(=O)C3CC3)c2)CCO1 | 
28 | 4% | 1% | 0.2% |  | C[C@@H]1COCCN1c1ccncc1NC(=O)c1ccnc(NC(=O)C2CC2)c1 | 
29 | 25% | 6% | 0.2% | 0.19 nM | O=C(Nc1cnccc1N1CCC(F)(F)CC1)c1ccnc(NC(=O)C2CC2)c1 | 
30 | 0.9% | 0.4% | 0.4% |  | CC1(C)COCCN1c1ccncc1NC(=O)c1ccnc(NC(=O)C2CC2)c1 | 
31 | 9% | 3% | 0.2% |  | C[C@H]1COCCN1c1ccncc1NC(=O)c1ccnc(NC(=O)C2CC2)c1 | 
32 | 34% | 26% | 4% |  | C[C@@H]1CN(c2ccncc2NC(=O)c2ccnc(NC(=O)C3CC3)c2)C[C@H](C)O1 | 
33 | 35% | 16% | 0.4% |  | CC1(C)CN(c2ccncc2NC(=O)c2ccnc(NC(=O)C3CC3)c2)CCO1 | 
34 | 7% | 1% | 0.5% |  | O=C(Nc1cnccc1C1CCCC1)c1ccnc(NC(=O)C2CC2)c1 | 
35 | 17% | 6% | 1% |  | O=C(Nc1cnccc1N1CCCCC1)c1ccnc(NC(=O)C2CC2)c1 | 
36 | 84% | 63% | 2% |  | O=C(Nc1cnccc1N1CCOCC1)c1ccnc(NC(=O)C2CC2)c1 | 
